Measurements reported in US20240391958A1, “KEANUMYCINS AND USES THEREOF IN MEDICINE AND PLANT PROTECTION” (Leibniz-Institut für Naturstoff-Forschung und …, priority 2023, published 2024).
Converted amounts (≈) assume the structure as drawn. “And” between values parts separate entries of the source, which are not always exact repeats. Equal entries are not always repeated. Where two headings read alike, the source gives them in different places. Where a SMILES comes first, the peptide text is derived from it. Bridges are numbered along the chain shown (N, C = ends). [ ]: non-standard residue; d: D form. The star is where a group is joined. X1 = CCCCCCCCCCCC[C@@H](O)[C@@H](O)CC(=O)*; Asp(3S-OH) = N[C@H](C(=O)O)[C@H](O)C(=O)O; Thr(4-Cl) = N[C@H](C(=O)O)[C@H](O)CCl; aThr = C[C@H](O)[C@H](N)C(=O)O; d(hSer) = N[C@H](CCO)C(=O)O; dDab = NCC[C@@H](N)C(=O)O; Dab = NCC[C@H](N)C(=O)O; Dhb = C/C=C(\N)C(=O)O

Tests used:
Assay in all cases: Broth dilution method (EUCAST)
Format in all cases: cell-based
[1] = test system: Candida glabrata 2021-359
Protocol: (§1) The activity assay was performed using the broth dilution method according to the EUCAST DEFINITIVE DOCUMENT E.DEF 9.3.2. B. cinerea and A. solani were incubated according to the Methods for dilution antimicrobial susceptibility tests for bacteria that grow aerobically by the NCCLS. Keanumycin A was dissolved in DMSO.

[2] = test system: Candida tropicalis 2021-360
Protocol: as §1

[3] = test system: Rhizopus arrhizus 2021-366
Protocol: as §1

[4] = test system: Scedosporium apiospermum 2016-079
Protocol: as §1

C/C=C1\NC(=O)[C@H]([C@H](C)O)NC(=O)[C@H](CCN)NC(=O)[C@@H](CCO)NC(=O)CNC(=O)[C@@H](CCN)NC(=O)[C@@H](NC(=O)C[C@H](O)[C@H](O)CCCCCCCCCCCC)COC(=O)[C@H]([C@H](O)CCl)NC(=O)[C@H]([C@H](O)C(=O)O)NC1=O [Keanumycin A, keanumycin A] (X1-S[dDab]G[d(hSer)][Dab][aThr][Dhb][Asp(3S-OH)][Thr(4-Cl)]; ester 1-C)
MIC ([1]; Nakaseomyces glabratus, 2021359): 0.86 µM and 1 µg/mL
MIC ([1]; Nakaseomyces glabratus, 2021359, read-out: Result of the broth dilution method assay (MIC)): 1 mg/L (≈ 0.857 µM)
MIC ([2]; Candida tropicalis, 2021360): 0.86 µM and 1 µg/mL
MIC ([2]; Candida tropicalis, 2021360, read-out: Result of the broth dilution method assay (MIC)): 1 mg/L (≈ 0.857 µM)
MIC ([3]; Rhizopus arrhizus, 2021366): > 6.85 µM and > 8 µg/mL
MIC ([3]; Rhizopus arrhizus, 2021366, read-out: Result of the broth dilution method assay (MIC)): > 8 mg/L
MIC ([4]; Scedosporium apiospermum, 2016079): 6.85 µM and 8 µg/mL
MIC ([4]; Scedosporium apiospermum, 2016079, read-out: Result of the broth dilution method assay (MIC)): 8 mg/L (≈ 6.86 µM)
